What is called MBC is the lowest tested concentration that kills the bacteria rather than only halting them. The term MIC denotes the smallest concentration in the dilution series that meets the test's criterion for growth inhibition.

The source of these data is patent US6592885B2, “Method for making infection-resistant fabricated textile articles for biomedical applications” (priority 2001, dated 2003).

Series [1] relates to S. aureus. The series is described as follows: MIC/MBC of native and heated Cipro/Oflox (heat stability). Type of series: cell-based. To be noted: Staphylococcus aureus, n=6; for MBC: broth backplated on agar; for MIC: 10^6 S. aureus/ml, TSB. How it is done: An inoculum of S. aureus was diluted to obtain a bacterial concentration of 10^6 S. aureus/ml. […] V. Mosby, St. Louis, 1986]. Antibiotic concentrations in the assay were […].

Series [2] can be described thus: Structural stability to heating conditions, dye bath analysis via HPLC. Type of series: physicochemical. To be noted: heating conditions utilized in pad/heat dyeing; data not shown.
Setting [3] is: antibiotic heated to 135° C. for 1 hour (dye bath conditions), 24 hours.

In the case of `O=C(O)c1cn(C2CC2)c2cc(N3CCNCC3)c(F)cc2c1=O` [Cipro, Ciprofloxacin], the MBC in series [1] (setting [3]) was 6.5 µM; in series [1] (native antibiotic, 24 hours), 6.5 µM.
In the case of `CC1COc2c(N3CCN(C)CC3)c(F)cc3c(=O)c(C(=O)O)cn1c23` (stereo not shown) [Oflox, Ofloxacin], the MIC in series [1] (setting [3]) stood at 0.78 µM; in series [1] (native antibiotic, turbidity after 24 hours) it was 0.78 µM. For the same compound, the MBC was 9.5 µM in series [1] (setting [3]) and 9.5 µM in series [1] (native antibiotic, 24 hours). Moreover, the “structural stability upon dye bath analysis via HPLC” value in series [2] is “no structural degradation”.
